One molecule from patent US9573901B2, “Crystal form of chidamide, preparation method and use thereof” (SHENZHEN CHIPSCREEN BIOSCIENCES, LTD., priority 2012, dated 2017) can be followed below.

Data set [1] is described as follows: Stability test at high temperature, high humidity and strong light exposure. The class given is physicochemical. The conditions noted are these: high temperature (60° C.), high humidity (90%±5%) and strong light exposure (4500 Lx±500 Lx). How it is done: The stability of the chidamide crystal form A and the chidamide crystal form B described herein was tested at high temperature (60° C.), high humidity (90%±5%) and strong light exposure (4500 Lx±500 Lx). […] Both the chidamide crystal form A and the chidamide crystal form B are suitable for the manufacturing of drug products and long-term storage. The chidamide crystal form A and the chidamide crystal form B described herein have excellent performance in terms of oral absorption and inhibition of cell differentiation and proliferation. Additionally, both crystal forms have low toxicity and favorable storage and treatment stability, and can be used in the preparation of a medicament for treating cell differentiation and proliferation-related diseases. Thus, the present invention provides the use of the chidamide crystal form A and the chidamide crystal form B in the preparation of a medicament for treating cell differentiation and proliferation-related diseases.

The next data set can be described thus: Solubility. The class given is physicochemical.

Regarding `Nc1cc(F)ccc1NC(=O)c1ccc(CNC(=O)/C=C/c2cccnc2)cc1` [chidamide crystal form A, N-(2-amino-4-fluorophenyl)-4-(N-(3-pyridylacryloyl)aminomethyl)benzamide], in data set [1], the “content and total impurity amount after stability test” value was “no significant change”; the “crystal form after stability test” value was “keep the original crystal form”. Besides, the solubility entry in “Solubility” is listed as “favorable performance in terms of solubility”.
